# In patent US7091207B2, “Method of treating myocardial infarction with PDE-5 inhibitors” (Virginia Commonwealth University, priority 2002, dated 2006):
# Marks after values point to notes of the source that are not given here.
# Experiments:
# [1] = system: neonatal mouse cardiac myocytes; format: cell-based; conditions: for effect of channel blocker on the protective effect of sildenafil: 5-hydroxydecanoate 100 μM, HMR1098 30 μM
# Protocol: Neonatal mouse myocytes in culture are incubated with 0.5–5 μM of DOX (in the presence or absence of 1 μM sildenafil) for 18 hours. The cells are then incubated with drug free growth medium for an additional 24 hours. Cytotoxicity of DOX is quantitatively assessed by measuring the percentage of cells killed and the amount of creatine kinase (CK) released into the media. In addition, a trypan blue exclusion assay and propidium iodide nuclear stain are used to quantitate cell death. Since DOX induces cardiomyopathy through the release of reactive oxygen species, lipid peroxidation in the cells is also measured as an index of oxidative damage.
# Neonatal mouse cardiac myocyte cultures are used for membrane potential studies. Cells in culture are treated with 0.5–5 μM of DOX (in the presence or absence of 1 μM sildenafil) for 18 hours. The cells are then incubated with drug free growth medium for an additional 24 hours. Additional groups are included where the cells are treated with a mitoKATP channel blocker (5-hydroxydecanoate, 100 μM), surface channel blocker (HMR1098, 30 μM) or cyclosporine, a mitochondrial membrane potential (Ψm) blocker (5 μM). For assessment of apoptosis, the TUNEL assay is used, which is an accurate method for distinguishing apoptosis from necrosis by specifically detecting DNA cleavage and chromatin condensation characteristic of apoptosis. Additionally, positive TUNEL staining directly correlates with the more typical biochemical and morphological aspects of apoptosis. Since an understanding of cell morphology is critical for data interpretation, apoptotic morphology is simultaneously assessed according to accepted scientific criteria previously described (Nor-Avi, 1999). The in situ staining of DNA strand breaks detected by the TUNEL assay along with subsequent morphological observation via epifluorescent, confocal, and electron microscopy, provides significant and reliable data regarding the identification of apoptotic cells, even in tissue samples where apoptosis represents a small segment of the population (Manning 1994). In addition, several other key indicators of apoptosis including annexin-V, cytosolic cytochrome c, caspase 3, caspase 8, as well as poly (ADP-ribose) polymerase cleavage in these groups, are measured. Mitochondrial membrane potential (Ψm) using a fluorescent indicator probe, JC-1 (Molecular Probes, Eugene, Oreg.) is measured.
# iNOS vs nNOS = conditions: cited from earlier work
# [2] = system: DOX-related cardiac complications; conditions: clinical use; cited from earlier work
# [3] = system: rabbit heart, ischemia/reperfusion injury; assay: In situ rabbit model of myocardial infarction (30 min coronary occlusion, 180 min reperfusion), infarct size by TTC staining; format: in vivo; conditions: control rabbits, 5-HD 5 mg/kg IV 10 min prior to ischemia
# [4] = Systemic hemodynamics (blood pressure, heart rate, rate pressure product) in rabbits; format: in vivo, rabbit; conditions: 5-HD 5 mg/kg IV 10 min prior to ischemia, control rabbits
# [5] = system: mouse heart, global I-R injury; assay: Isolated perfused mouse heart (Langendorff), 20 min global ischemia and 30 min reperfusion after in vivo treatment; conditions: saline+1400W; 1400W 10 mg/kg IP 30 minutes before I-R
# Protocol: Adult male outbred ICR mice were supplied by Harlan Inc (Indianapolis, Ind.). Viagra pills (Pfizer Inc) were ground into powder and dissolved in saline. The drug solution was filtered (0.45-μm pore size) before intraperitoneal injection. 1400W, an iNOS inhibitor, was obtained from Alexis. We used an isolated perfused mouse heart model subjected to 20 minutes of global ischemia and 30 minutes of reperfusion (Langendorff mode). Myocardial I-R injury was assessed by measuring infarct size, contractile function, and coronary flow as described previously (Xi, 1999). Twenty-eight mice were randomized into the following 4 groups: (n=6 to 9 per group): (1) saline (0.15 mL IP), (2) sildenafil (0.7 mg/kg IP, equivalent to 50 mg Viagra pill used for patients with erectile dysfunction, given 24 hours before I-R), (3) sildenafil+1400W (10 mg/kg IP, 14 given 30 minutes before I-R), and (4) saline+1400W. Measurement of NOS Isoforms Mice were treated with sildenafil (0.7 mg/kg IP), and their hearts were removed at 15, 30, and 45 minutes and 1, 2, 3, 4, and 24 hours after injection (n=3 per group). Three nontreated hearts were used as controls. Tissue samples were ground under liquid nitrogen and homogenized with TRI Reagent (Molecular Research Center) for extracting total RNA, which was reverse-transcribed into cDNA at 50° C. for 30 minutes using a OneStep reverse transcription (RT)-polymerase chain reaction (PCR) kit from Qiagen. The oligonucleotide primers were synthesized on the basis of published sequences for murine iNOS, eNOS, and GAPDH15 (Integrated DNA Technology). The RT-PCR products were electrophoresed on 1.5% Trisacetate-EDTA agarose gel. The target bands were identified on the basis of their specific size using DNA standards. iNOS and eNOS proteins were measured by Western blots as described previously. 13 In brief, triplicate heart samples were collected 24 hours after saline or sildenafil injection and homogenized in ice-cold RIPA buffer (Upstate Biotechnology). The homogenate was centrifuged at 10,000 g for 10 minutes at 4° C., and supernatant was recovered as the total cellular protein. Total protein (60 μg) from each sample was separated by SDS-PAGE on 10% acrylamide gels, transferred to a polyvinylidine difluoride membrane, and then blocked with 5% nonfat dry milk in Tris-buffered saline. The membrane was subsequently incubated with a rabbit polyclonal antibody (dilution 1:500, Santa Cruz) reacting specifically to iNOS, eNOS, or actin. The secondary antibody was a horseradish peroxidase-conjugated anti-rabbit IgG (1:1000 dilution, Amersham). The membranes were developed using enhanced chemiluminescence and exposed to x-ray film. The mRNA and protein expression were quantified by scanning each of the RT-PCR or Western blot band using a densitometer (Bioquant 98). […]
structure (smiles),measurement,setting,value
CNC(=S)NS(=O)(=O)c1cc(CCNC(=O)c2cc(Cl)ccc2OC)ccc1OC [HMR1098],effect of channel blocker on the protective effect of sildenafil,[1],not by HMR1098
"CC(=N)NCCCC[C@H](N)C(=O)O.Cl [L-NIL, L-N-6-(1-iminoethyl)lysine hydrochloride]",selectivity for iNOS vs nNOS,iNOS vs nNOS,approximately 40 fold
C[C@@H](CN1CC(=O)NC(=O)C1)N1CC(=O)NC(=O)C1 [dexrazoxane],reduction of DOX-related cardiac complications,[2],50%
"CCCCCC(O)CCCC(=O)O (stereo not shown) [5-HD, 5-hydroxydecanoate]",infarct size,[3],33.5±1.9 % of risk area
same,effect of channel blocker on the protective effect of sildenafil,[1],abolished
same,HR,[4]; 30-min Ischemia,185 ± 8 beats/min
same,MAP,[4]; 30-min Ischemia,95 ± 5^a mmHg
same,RPP (systolic arterial pressure × HR),[4]; 30-min Ischemia,19215 ± 999
same,HR,[4]; Baseline,"171 ± 13^d,e beats/min"
same,MAP,[4]; Baseline,120 ± 4 mmHg
same,RPP (systolic arterial pressure × HR),[4]; Baseline,22477 ± 1849
same,HR,[4]; Preischemia,178 ± 13 beats/min
same,MAP,[4]; Preischemia,110 ± 6 mmHg
same,RPP (systolic arterial pressure × HR),[4]; Preischemia,20977 ± 1373
same,HR,[4]; Reperfusion (60 min),162 ± 8 beats/min
same,MAP,[4]; Reperfusion (60 min),97 ± 5^a mmHg
same,RPP (systolic arterial pressure × HR),[4]; Reperfusion (60 min),17050 ± 1132
same,HR,[4]; Reperfusion (120 min),160 ± 8 beats/min
same,MAP,[4]; Reperfusion (120 min),91 ± 5^a mmHg
same,RPP (systolic arterial pressure × HR),[4]; Reperfusion (120 min),15770 ± 984^a
same,HR,[4]; Reperfusion (180 min),160 ± 7 beats/min
same,MAP,[4]; Reperfusion (180 min),91 ± 7^a mmHg
same,RPP (systolic arterial pressure × HR),[4]; Reperfusion (180 min),16300 ± 1503^a
CC(=N)NCc1cccc(CN)c1 [1400W],selectivity for iNOS vs nNOS,iNOS vs nNOS,approximately 40 fold
same,infarct size,[5],24.5±1.0%
"CSC(N)=NCCC[C@H](N)C(=O)O [SMT, S-methyl-L-thiocitrulline]",selectivity for iNOS vs nNOS,iNOS vs nNOS,approximately 40 fold
"COc1cccc2c1C(=O)c1c(O)c3c(c(O)c1C2=O)C[C@@](O)(C(=O)CO)C[C@@H]3O[C@H]1C[C@H](N)[C@H](O)[C@H](C)O1 [DOX, Doxorubicin]","apoptosis indicators (TUNEL, cytochrome c translocation, caspase-3, PARP cleavage, Ψm dissipation)",[1]; 0.5–5 μM DOX for 18 hours,TUNEL positivity
same,"necrotic cell death (CK release, uptake of trypan blue)",[1]; 0.5–5 μM DOX for 18 hours,increased necrotic cell death
